According to paper PMC9005971, “Discovery of 2-(4-Acrylamidophenyl)-Quinoline-4-Carboxylic Acid Derivatives as Potent SIRT3 Inhibitors” (Frontiers in Chemistry, 2022):

Experiments:
THP-1 cells [1] = assay: Colony formation assay, THP-1; type: cell-based; conditions: 12 days
Procedure: THP-1, MOLM-13, SEM and MV4-11 cells were cultured with P6 (0–2.0 µM) in 2.6% methycellulose medium containing 10% FBS in a 24-well flat-bottomed plate for 12 days ([Qu et al., 2021]). The number of individual colonies consisting of more than approximately 50 cells was counted by a CX43 microscope (Olympus, Shinjuku-ku, Tokyo, Japan) with an Olympus EP50 camera (Olympus, Shinjuku-ku, Tokyo, Japan).

THP-1 cells [2] = assay: In vitro antiproliferative CCK-8 assay, THP-1; type: cell-based; conditions: Homo sapiens
Procedure: (§1) The proliferation of THP-1, MOLM-13, SEM and MV4-11 cells was tested by CCK-8 assay. Briefly, cells were seeded in 96-well plate with about 5 × 10^3 cells in each well. The cells were treated with P6 or Ara-C (0–10 µM) after 24 h of incubation. CCK-8 reagent ([…]) was added to each well after 72 h of incubation, and cells were incubated at 37°C for 4 h. The light absorbance at 450 nm was measured by using an Opsys microplate reader (Dynex Technologirs, Chantilly, VA, United States). Results are illustrated as percent of cell viability normalized to DMSO-treated control cells.

SIRT2 = molecular target: T1, SIRT2 (Homo sapiens, UniProt Q8IXJ6); assay: SIRT2 enzyme inhibitory assay (fluorescence); type: biochemical; conditions: for activity at 0.01 µM / activity at 0.033 µM / activity at 0.1 µM / activity at 0.333 µM / activity at 1 µM / activity at 3.3 µM / activity at 10 µM / activity at 33 µM / activity at 100 µM: SIRT2 enzyme activity; for activity at 0.01 µM: 10 nM; for activity at 0.033 µM: 33 nM; for activity at 0.1 µM: 100 nM; for activity at 0.333 µM: 333 nM
T1 sequence (Q8IXJ6 1-389): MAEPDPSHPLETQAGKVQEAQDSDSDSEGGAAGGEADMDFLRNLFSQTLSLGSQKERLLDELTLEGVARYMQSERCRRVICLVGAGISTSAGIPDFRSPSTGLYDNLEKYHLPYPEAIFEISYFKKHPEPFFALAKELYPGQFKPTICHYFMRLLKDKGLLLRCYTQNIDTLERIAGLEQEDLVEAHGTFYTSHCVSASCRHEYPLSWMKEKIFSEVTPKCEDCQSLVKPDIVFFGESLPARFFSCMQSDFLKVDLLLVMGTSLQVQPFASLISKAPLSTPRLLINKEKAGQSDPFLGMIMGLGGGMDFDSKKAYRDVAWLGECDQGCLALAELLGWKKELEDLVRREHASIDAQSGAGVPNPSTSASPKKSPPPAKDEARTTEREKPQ
Procedure: All of the enzymatic reactions were conducted at 37°C for 30 min. […] The compounds were diluted in 10% DMSO and 5 ul of the dilution was added to each reaction mixture (50 ul). The assay was performed by quantitating the amount of fluorescent product generated from the enzyme reaction. Fluorescence intensity is then analyzed at excitation wavelength of 350–360 nm and emission wavelength of 450–460 nm on a SpectraMax M5 microtiter plate reader. The IC50 values were calculated using Prism GraphPad software.

[3] = tested on: THP-1, MOLM-13, SEM and MV4-11 cells; assay: Cell cycle analysis, MLLr leukemic cells; type: cell-based; conditions: 0.9–2.0 µM
Procedure: THP-1, MOLM-13, SEM and MV4-11 cells were incubated with 1.0 (THP-1, MOLM-13 cells) and 2.0 (SEM and MV4-11 cells) µM of P6 for 72 h. After treatment, cells were collected and fixed with 70% pre-cold ethanol in PBS and stored at −20°C for at least 24 h. Then the cells were stained with […] RNase A for 30 min in the dark at room temperature. Finally, flow cytometry was used to detect the percentage of cells in the sub-G1, G0/G1, S, and G2/M phases with a Beckman Coulter DxFLEX flow cytometer (Florida, Miami, USA). The data was analyzed and fitted by ModFit software.

[4] = tested on: THP-1, MOLM-13, SEM and MV4-11 cells; assay: Cell morphology / differentiation (Wright-Giemsa staining); type: cell-based; conditions: 72 h
Procedure: THP-1, MOLM-13, SEM and MV4-11 cells were incubated with P6 or Ara-C for 72 h and then collected. Slides were made by cytospin and subsequently air dried. The cells were stained with Wright-Giemsa and observed for morphological features using a light microscope.

SEM cells = assay: In vitro antiproliferative CCK-8 assay, SEM; type: cell-based; conditions: 72 h, read-out: IC50 growth inhibition SEM
Procedure: as §1

IC50 (THP-1 cells [2]; 72 h, CCK-8, read-out: IC50 growth inhibition THP-1): 870 nM | activity at 0.01 µM (SIRT2; Repeat1): 100% | activity at 0.01 µM (SIRT2; Repeat2): 98% | activity at 0.033 µM (SIRT2; Repeat1): 96% | activity at 0.033 µM (SIRT2; Repeat2): 100% | activity at 0.1 µM (SIRT2; Repeat1): 101% | activity at 0.1 µM (SIRT2; Repeat2): 101% | activity at 0.333 µM (SIRT2; Repeat1): 100% | activity at 0.333 µM (SIRT2; Repeat2): 95% | activity at 1 µM (SIRT2; Repeat1): 93% | activity at 1 µM (SIRT2; Repeat2): 83% | activity at 3.3 µM (SIRT2; Repeat1): 83% | activity at 3.3 µM (SIRT2; Repeat2): 73% | activity at 10 µM (SIRT2; Repeat1): 64% | activity at 10 µM (SIRT2; Repeat2): 65% | activity at 33 µM (SIRT2; Repeat1): 51% | activity at 33 µM (SIRT2; Repeat2): 48% | activity at 100 µM (SIRT2; Repeat1): 36% | activity at 100 µM (SIRT2; Repeat2): 39% | IC50 (SIRT2; mean of two experiments): 33500 ± 1600 nM
SMILES: C=CC(=O)Nc1ccc(-c2cc(C(=O)N3CCN(c4ccccc4F)CC3)c3ccccc3n2)cc1 [Compound P6, N-(4-{4-[4-(2-Fluoro-phenyl)-piperazine-1-carbonyl]-quinolin-2-yl}-phenyl)-acrylamide]
colony formation percentage (THP-1 cells [1]; THP-1, 0.2 µM): 93.2 | colony formation percentage (THP-1 cells [1]; THP-1, 0.4 µM): 13.4 | colony formation percentage (THP-1 cells [1]; THP-1, 0.8 µM): 4.1 | inhibition at 1 µM (THP-1 cells [2]; dose of 1 μM, mean of three experiments, read-out: THP-1 percentage inhibitory rate): 85.9 ± 3.42% | effect on cell cycle progression [3]: capable of causing MLLr leukemic cell cycle arrest at G0/G1 phase | cell differentiation / morphology [4]: induced the cell differentiation accompanied with morphological changes | IC50 (SEM cells): 1790 nM
